# Numbering of substitutions follows the chain as printed. Ends that are not written are not given here.
# Experiments:
# Assay in all cases: PDK1 activity assay with T308tide
# Type in all cases: biochemical
# GST-PDK1 [Leu155Val] = target: T1, GST-PDK1 [Leu155Val] (Homo sapiens, UniProt O15530, L155V)
# T1 construct: different protein constructs, comprising the full length protein or the catalytic domain alone; made in house; host or cells: HEK293 cells (pEBG-2T-PDK1 mutant)
# GST-PDK1 [Arg131Lys] = target: T2, GST-PDK1 [Arg131Lys] (Homo sapiens, UniProt O15530, R131K)
# T2 construct: different protein constructs, comprising the full length protein or the catalytic domain alone; made in house; host or cells: HEK293 cells (pEBG-2T-PDK1 mutant)
# T2 sequence (O15530 1-556 R131K): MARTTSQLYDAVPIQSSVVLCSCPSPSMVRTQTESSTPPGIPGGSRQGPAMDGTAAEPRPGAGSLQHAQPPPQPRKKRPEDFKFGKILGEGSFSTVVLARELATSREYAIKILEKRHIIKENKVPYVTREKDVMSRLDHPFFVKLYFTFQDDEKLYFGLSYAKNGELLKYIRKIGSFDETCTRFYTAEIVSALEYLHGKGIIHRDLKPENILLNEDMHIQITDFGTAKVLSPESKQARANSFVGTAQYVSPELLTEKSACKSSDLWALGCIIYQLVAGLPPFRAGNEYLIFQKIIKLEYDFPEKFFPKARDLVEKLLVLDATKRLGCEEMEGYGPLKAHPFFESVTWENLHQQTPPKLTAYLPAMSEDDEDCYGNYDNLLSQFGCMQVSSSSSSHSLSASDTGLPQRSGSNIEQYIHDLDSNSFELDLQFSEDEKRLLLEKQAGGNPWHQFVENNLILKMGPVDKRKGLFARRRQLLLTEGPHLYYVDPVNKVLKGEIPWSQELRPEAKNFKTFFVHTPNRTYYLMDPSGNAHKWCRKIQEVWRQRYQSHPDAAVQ
# GST-PDK1 [Leu155Ala] = target: T3, GST-PDK1 [Leu155Ala] (Homo sapiens, UniProt O15530, L155A)
# T3 construct: different protein constructs, comprising the full length protein or the catalytic domain alone; made in house; host or cells: HEK293 cells (pEBG-2T-PDK1 mutant)
# T3 sequence (O15530 1-556 L155A): T2 sequence (O15530 1-556 R131K) with K131R, L155A
# GST-PDK1 [Arg131Ala] = target: T4, GST-PDK1 [Arg131Ala] (Homo sapiens, UniProt O15530, R131A); conditions: for AC50 / Max. activity: GST-PDK1 [Arg131Ala]
# T4 construct: different protein constructs, comprising the full length protein or the catalytic domain alone; made in house; host or cells: HEK293 cells (pEBG-2T-PDK1 mutant)
# T4 sequence (O15530 1-556 R131A): T2 sequence (O15530 1-556 R131K) with K131A
# T1 sequence (O15530 whole entry L155V, the tested form may be a part): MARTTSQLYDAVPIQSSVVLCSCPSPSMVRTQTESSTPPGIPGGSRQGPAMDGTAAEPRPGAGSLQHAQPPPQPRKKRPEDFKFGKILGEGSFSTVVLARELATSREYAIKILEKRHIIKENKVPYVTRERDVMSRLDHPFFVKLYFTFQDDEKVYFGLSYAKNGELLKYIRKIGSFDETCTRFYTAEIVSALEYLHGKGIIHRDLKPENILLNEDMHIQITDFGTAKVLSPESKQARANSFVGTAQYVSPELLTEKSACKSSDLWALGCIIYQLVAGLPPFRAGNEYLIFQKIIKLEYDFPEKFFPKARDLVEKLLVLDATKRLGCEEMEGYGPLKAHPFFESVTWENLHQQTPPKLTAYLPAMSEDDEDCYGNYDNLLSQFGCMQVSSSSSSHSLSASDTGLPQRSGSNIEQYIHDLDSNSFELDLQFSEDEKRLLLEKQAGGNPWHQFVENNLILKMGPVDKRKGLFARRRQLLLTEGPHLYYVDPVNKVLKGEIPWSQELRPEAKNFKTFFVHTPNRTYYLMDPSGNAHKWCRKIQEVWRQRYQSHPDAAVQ
compound,measurement,setting,value
O=C(O)CSC(CC(=O)c1ccc(Cl)cc1)c1ccccc1 (stereo not drawn) [Compound 1],AC50,GST-PDK1 [Leu155Val],No Effect
same,AC50,GST-PDK1 [Arg131Lys],51 ± 15 µM
same,Max. activity,GST-PDK1 [Arg131Lys],1.13 ± 0.09 U/mg
same,AC50,GST-PDK1 [Leu155Ala],> 200 µM
same,Max. activity,GST-PDK1 [Leu155Ala],2.02 ± 0.61 U/mg
same,activation of PDK1 mutant (in words),GST-PDK1 [Arg131Ala]; Arg131 mutated to Ala,no longer activated
same,AC50,GST-PDK1 [Arg131Ala],> 200 µM
same,Max. activity,GST-PDK1 [Arg131Ala],1.09 ± 0.06 U/mg
"REPRILSEEEQEMFRDFDYIADWC [PIFtide, reference compound]",AC50,GST-PDK1 [Leu155Val],No Effect
same,AC50,GST-PDK1 [Arg131Lys],0.13 ± 0.02 µM
same,Max. activity,GST-PDK1 [Arg131Lys],0.77 ± 0.02 U/mg
same,AC50,GST-PDK1 [Leu155Ala],3.7 ± 0.66 µM
same,Max. activity,GST-PDK1 [Leu155Ala],3.46 ± 0.15 U/mg
same,AC50,GST-PDK1 [Arg131Ala],3.7 ± 2 µM
same,Max. activity,GST-PDK1 [Arg131Ala],1.24 ± 0.8 U/mg

# Source: patent publication US20110152166A1, “METHOD OF MODULATION OF PROTEIN PHOSPHORYLATION-DEPENDENT CONFORMATIONAL TRANSITIONS WITH LOW MOLECULAR WEIGHT COMPOUNDS” (priority 2006, published 2011)
